Data as given in ChEMBL document CHEMBL1156413, “New acylated triterpene saponins from Silene fortunei that modulate lymphocyte proliferation” (2002).
The source made the active and inactive calls. The rule behind the calls is not given here.

How the values were obtained:
[1] = system: Jurkat; assay: Induction of apoptosis in human Jurkat cells assessed as early apoptotic cells at 10 uM after 18 hrs using annexin V-FITC staining by flow cytometry; format: functional, cell-based
[2] = system: Jurkat; assay: Cytotoxicity against human Jurkat cells at 5 to 10 uM; format: functional, cell-based
[3] = system: Jurkat; assay: Cytotoxicity against human Jurkat cells at 5 uM; format: functional, cell-based
[4] = system: Jurkat; assay: Immunomodulatory activity in human Jurkat cells assessed as stimulation index at 0.001 to 5 uM after 36 hrs by [3H]thymidine incorporation assay; format: functional
[5] = system: Jurkat; assay: Induction of apoptosis in human Jurkat cells assessed as enhancement of early apoptotic cells population at 10 uM after 18 hrs using annexin V-FITC staining by flow cytometry relative to control; format: functional
[6] = system: Jurkat; assay: Immunomodulatory activity in human Jurkat cells after 36 hrs by [3H]thymidine incorporation assay; format: functional, cell-based
[7] = system: Jurkat; assay: Cytotoxicity against human Jurkat cells at 1 uM; format: functional, cell-based
[8] = system: Jurkat; assay: Cytotoxicity against human Jurkat cells up to 10 uM; format: functional, cell-based

C[C@@H]1O[C@@H](O[C@H]2[C@H](OC(=O)[C@]34CCC(C)(C)C[C@H]3C3=CC[C@@H]5[C@@]6(C)CC[C@H](O[C@@H]7O[C@H](C(=O)O)[C@@H](O)[C@H](O)[C@H]7O[C@@H]7O[C@H](CO)[C@H](O)[C@H](O)[C@H]7O)[C@@](C)(C=O)[C@@H]6CC[C@@]5(C)[C@]3(C)C[C@H]4O)O[C@H](C)[C@H](O)[C@@H]2O)[C@H](O)[C@H](O)[C@H]1O
Activity [1]: inactive
Activity [2]: inactive

COc1ccc(/C=C/C(=O)O[C@@H]2[C@H](O)[C@@H](O[C@@H]3O[C@@H](C)[C@H](O)[C@@H](O)[C@H]3O)[C@H](OC(=O)[C@]34CCC(C)(C)C[C@H]3C3=CC[C@@H]5[C@@]6(C)CC[C@H](O[C@@H]7O[C@H](C(=O)O)[C@@H](O)[C@H](O)[C@H]7O[C@@H]7O[C@H](CO)[C@H](O)[C@H](O)[C@H]7O)[C@@](C)(C=O)[C@@H]6CC[C@@]5(C)[C@]3(C)C[C@H]4O)O[C@@H]2C)cc1 (mixture of isomers) [JENISSEENSOSIDE C/D]
Activity [3]: Active
Activity [4]: 1.36
fold change (FC) [5]: 9

COc1ccc(/C=C/C(=O)O[C@@H]2[C@H](OC(C)=O)[C@@H](O[C@@H]3O[C@@H](C)[C@H](O)[C@@H](O)[C@H]3O)[C@H](OC(=O)[C@]34CCC(C)(C)C[C@H]3C3=CC[C@@H]5[C@@]6(C)CC[C@H](O[C@@H]7O[C@H](C(=O)O)[C@@H](O)[C@H](O)[C@H]7O[C@@H]7O[C@H](CO)[C@H](O)[C@H](O)[C@H]7O)[C@@](C)(C=O)[C@@H]6CC[C@@]5(C)[C@]3(C)C[C@H]4O)O[C@@H]2C)cc1
Activity [6]: Dose-dependent effect
Activity [7]: Active
Activity [4]: 1.44
fold change (FC) [5]: 2.8

CC(=O)OC[C@H]1O[C@@H](O[C@H]2[C@@H](OC(C)=O)[C@@H](C)O[C@@H](OC(=O)[C@]34CCC(C)(C)C[C@H]3C3=CC[C@@H]5[C@@]6(C)CC[C@H](O[C@@H]7O[C@H](C(=O)O)[C@@H](O)[C@H](O)[C@H]7O[C@@H]7O[C@H](CO)[C@H](O)[C@H](O)[C@H]7O)[C@@](C)(C=O)[C@@H]6CC[C@@]5(C)[C@]3(C)C[C@H]4O)[C@@H]2O[C@@H]2O[C@@H](C)[C@H](O[C@@H]3OC[C@@H](O)[C@H](O[C@@H]4OC[C@H](O)[C@H](O)[C@H]4O[C@@H]4OC[C@H](O)[C@H](O)[C@H]4O)[C@H]3O)[C@@H](O)[C@H]2O)[C@H](O)[C@@H](O)[C@@H]1O
Activity [8]: inactive
Activity [4]: 1.56
